Entries after “also recorded” stand apart in the source; their conditions may differ.
Tests used:
[1] = tested on: beta glucuronidase purified from abalone tissue; assay: Storage stability of analytical standards in ready-to-use test kits at −20° C. with abalone beta-glucuronidase; assay type: physicochemical; details: for stability of the standard in ready-to-use kits (free drug degradant peak area normalized to codeine): kits made with suspended solid state and solid state (direct enzyme interface, urine matrix interface) technology, snap frozen at −20° C., LC-MS/MS; for stability of the standard, suspended solid state technology / stability of the standard, urine matrix interface technology: up to 14 days
Experimental: (§1) Both (A) purified recombinant beta glucuronidase (KURA) and (B) beta glucuronidase purified from abalone tissue show similar results. Complete degradation was estimated by incubating the buprenorphine glucuronic acid standard under optimum reaction conditions for 1 hr. Negative controls were processed like that of mixed kits but excluded the respective beta-glucuronidase enzyme to measure non-specific degradation. All samples were extracted with acetonitrile prior to analysis using a liquid chromatography tandem mass spectrometry method optimized for buprenorphine. Where possible beta-glucuronidase enzyme was removed from suspended solid state, direct enzyme, and urine matrix samples prior to extraction. Acetonitrile was directly added to frozen mixed kits and negative controls to immediately degrade the beta glucuronidase enzyme. Removal of enzyme prior to extraction and the quick addition of acetonitrile limited degradation associated with sample processing and provided a better measurement of storage stability. Peak area of the degradant (free drug) was normalized to the response of codeine which was included to control for day-to-day and analytical variation. Data are presented as average±standard deviation (n=3-4). All experimental groups were manufactured and snap frozen at −20° C. prior to analysis.
FIG. 5. […] Negative controls were processed like that of mixed kits but excluded the respective beta-glucuronidase enzyme to measure non-specific degradation. Since 6-MAM was directly assayed complete degradation was estimated at the limit of detection (S/N≤10) established for the liquid chromatography tandem mass spectrometry method optimized for 6-MAM detection. All samples were extracted with acetonitrile prior to analysis. Where possible beta-glucuronidase enzyme was removed from suspended solid state, direct enzyme, and urine matrix samples prior to extraction. Acetonitrile was directly added to frozen mixed kits and negative controls to immediately degrade beta glucuronidase enzyme. Removal of enzyme prior to extraction and the quick addition of acetonitrile limited degradation associated with sample processing and provided a better measurement of storage stability. Peak area of 6-MAM was normalized to the response of codeine which was included to control for day-to-day and analytical variation. Data are presented as average±standard deviation (n=3-4). All experimental groups were manufactured and snap frozen at −20° C. prior to analysis.
(§2) Therefore, novel technology is required to stabilize process control specimens if ready-to-use formats are to be developed for analytical laboratories. Three new technologies (suspended solid state, direct enzyme interface, and urine matrix interface technology) were investigated to determine their utility in ready-to-use analytical test kit designs. While all three technologies afforded significant protection and stabilized the manufacturing process, only the suspended state and urine matrix technologies provided complete stability for 14 days in kits stored at −20° C.
(§3) The amount of degradation is independent of the source of the beta glucuronidase and remains constant for 14 days when kits are stored at −20° C. This storage temperature was selected because it is mostly commonly utilized by analytical testing laboratories. Degradation is specifically associated with manufacturing and storage because acetonitrile used for sample extraction was added immediately to frozen kits to degrade the beta-glucuronidase enzyme prior to sample processing and where possible (solid-state, direct enzyme interface, and matrix interface samples) the beta-glucuronidase enzyme was removed prior to sample extraction. These measures minimized any degradation that may have occurred during sample processing.

[2] = tested on: purified recombinant beta glucuronidase (KURA); assay: Storage stability of analytical standards in ready-to-use test kits at −20° C. with recombinant beta-glucuronidase; assay type: physicochemical; details: for stability of the standard in ready-to-use kits (free drug degradant peak area normalized to codeine): kits made with suspended solid state and solid state (direct enzyme interface, urine matrix interface) technology, snap frozen at −20° C., LC-MS/MS
Experimental: as §1, §2, §3
A 48-well plate from Innovative Labs (48 Rectangular Well U-Bottom 42.60 mm Height, 4.6 mL capacity) was formulated with various combinations of a mixture of glucuronidated drugs purchased from Cerilliant, Round Rock Texas, US (see details in table below), abalone enzyme (item #CST208) from ChemSci technologies, Belvidere IL, USA, Recombinant B-One (item #B-One-100 mL) enzyme from Kura Bioscience, buffer solution made with 5 mL of acetic acid and 7.71 g of ammonium acetate in 995 mL of pure water, and blank urine (item #OH2060) from Golden West Diagnostics.
Wells E1, F1, G1, and H1 designated as “Kura Pos. control drugs+Enz” contain the glucuronide drug standards in 50 μL DMSO mixed with […] of water and […] of Kura enzyme. The materials in this well were stored in frozen state before use.
Wells A3, B3, C3, and D3 designated as “DB pop removed Kura” contain the glucuronide drug standards in 50 μL DMSO and a suspended frozen mixture of […] of water and […] of Kura enzyme (see example 5: manufacturing process D). The materials in this well were stored in frozen state before use and the frozen enzyme and water mixture was removed prior to analysis of the well contents.

[3] = kits stored at −20° C., up to 14 days
[4] = mixed kits, snap frozen and stored at −20° C.

`CO[C@]12CC[C@@]3(C[C@@H]1[C@](C)(O)C(C)(C)C)[C@H]1Cc4ccc(O[C@@H]5O[C@H](C(=O)O)[C@@H](O)[C@H](O)[C@H]5O)c5c4[C@@]3(CCN1CC1CC1)[C@H]2O5` [buprenorphine glucuronic acid standard, Buprenorphine-3-beta-D-glucuronide] was tested, and the “stability of the standard in ready-to-use kits (free drug degradant peak area normalized to codeine)” value [1] was “fully protected and stabilized” and the “stability of the standard in ready-to-use kits (free drug degradant peak area normalized to codeine)” value [2] was “fully protected and stabilized”.

With `O=C1Nc2ccc(Cl)cc2C(c2ccccc2Cl)=NC1O[C@@H]1O[C@H](C(=O)O)[C@@H](O)[C@H](O)[C@H]1O` (stereo partly shown) [lorazepam glucuronic acid standard, Lorazepam glucuronide] the “stability of the standard in ready-to-use kits (free drug degradant peak area normalized to codeine)” value [1] was “fully protected and stabilized”, the “day at which complete degradation occurred, direct enzyme interface technology” value ([1]; kits stored at −20° C.) was 14 day and the “day at which significant degradation was detected, direct enzyme interface technology” value ([1]; kits stored at −20° C.) was 4 day. The “storage time for which the standard was protected, direct enzyme interface technology” value ([1]; kits stored at −20° C.) was 1 day, the “stability of the standard, suspended solid state technology” value ([1]; kits stored at −20° C.) was “fully protected” and the “stability of the standard, urine matrix interface technology” value ([1]; kits stored at −20° C.) was “fully protected”. For the same molecule, the “stability of the standard in ready-to-use kits (free drug degradant peak area normalized to codeine)” value [2] was “fully protected and stabilized”, the “day at which complete degradation occurred, direct enzyme interface technology” value ([2]; kits stored at −20° C.) was 14 day and the “day at which significant degradation was detected, direct enzyme interface technology” value ([2]; kits stored at −20° C.) was 4 day. For the same molecule, the “storage time for which the standard was protected, direct enzyme interface technology” value ([2]; kits stored at −20° C.) was 1 day, the “stability of the standard, suspended solid state technology” value [2, 3] was “fully protected” and the “stability of the standard, urine matrix interface technology” value [2, 3] was “fully protected”.

For `CC(=O)O[C@H]1C=C[C@H]2[C@H]3Cc4ccc(O)c5c4[C@@]2(CCN3C)[C@H]1O5` [6-MAM, 6-monoacetylmorphine], the “stability of the standard, direct enzyme interface technology” value ([1]; kits stored at −20° C.) was “slowed the rate of degradation but did not prevent 6-MAM degradation”, the “stability of the standard, suspended solid state technology” value ([1]; kits stored at −20° C.) was “fully protected; also recorded: fully protects and stabilizes” and the “stability of the standard, urine matrix interface technology” value ([1]; kits stored at −20° C.) was “slowed the rate of degradation but did not prevent 6-MAM degradation”. The “time to significant degradation in mixed kits” value ([1]; mixed kits stored at −20° C.) was no more than 4 days, the “stability of the standard in kits that mix enzyme with the analytical standard” value [1, 4] was “not stable” and the “degradation during the manufacturing process (day 0) in mixed kits” value ([1]; snap freezing at −20° C., day 0) was “no degradation occurred”. The “stability of the standard in kits that mix enzyme with the analytical standard” value [2, 4] was “no 6-MAM degradation occurred”.

For `CN1CC[C@]23c4c5ccc(O[C@@H]6O[C@H](C(=O)O)[C@@H](O)[C@H](O)[C@H]6O)c4O[C@H]2C(=O)CC[C@H]3[C@H]1C5` [hydromorphone glucuronic acid standard, Hydromorphone 3-beta-D-glucuronide], the “stability of the standard in ready-to-use kits (free drug degradant peak area normalized to codeine)” value [1] was “fully protected and stabilized” and the “stability of the standard in ready-to-use kits (free drug degradant peak area normalized to codeine)” value [2] was “fully protected and stabilized”.

For `C[N+](C)(CCC=C1c2ccccc2CCc2ccccc21)[C@@H]1O[C@H](C(=O)[O-])[C@@H](O)[C@@H](O)[C@H]1O` [amitriptyline glucuronic acid standard, Amitriptyline N-beta-D-glucuronide], the “stability of the standard in ready-to-use kits (free drug degradant peak area normalized to codeine)” value [1] was “fully protected and stabilized” and the “stability of the standard in ready-to-use kits (free drug degradant peak area normalized to codeine)” value [2] was “fully protected and stabilized”.

From US20250224410A1, “READY-TO-[…] FOR CHEMICAL ANALYSES AND QUANTIFICATION OF ANALYTES IN BIOLOGICAL SAMPLES” (PinPoint Testing, LLC, priority 2021, published 2025)
